Source: patent US20120277257A1, “Methods of Treating Diseases, Pharmaceutical Compositions, and Pharmaceutical Dosage Forms” (MYREXIS, INC., priority 2009, published 2012)
Read-outs that look alike come from different tables or passages of the source.

Assays:
[1] = test system: HT-29 colon cancer; assay: HT-29 colon cancer xenograft; type: in vivo, mice; details: 200 mg/kg oral, 5-days-on/2-days-off, after 3 cycles
[2] = test system: MIA PaCa-2 pancreatic cancer; assay: MIA PaCa-2 pancreatic cancer xenograft
[3] = Oral pharmacokinetics in female Sprague Dawley rats, single dose versus two doses; type: in vivo; details: for Cmax / AUC(0-t) / concentration at 24 h: female, Sprague Dawley, rat, plasma; for AUC(0-t): read-out: AUC(0-24); for concentration at 24 h: read-out: C24hr
Procedure: Female Sprague Dawley rats (n=4 or 5) were dosed orally once with 50 mg/kg (See FIG. 9A) or twice with 25 mg/kg (See FIG. 9B) of Compound 1. Pharmacokinetic parameters are outlined in Table 4 below. […] Effective plasma concentrations of Compound 1 were maintained with twice a day dosing.

[4] = test system: MV-4-11 acute myeloid leukemia; assay: MV-4-11 acute myeloid leukemia xenograft; type: in vivo, mice; details: 200 mg/kg oral, daily for 21 days
[5] = Phase I clinical trial, dose limiting toxicities; type: in vivo, human; details: 50 to 340 mg/m^2 oral, 1 to 13 (28-day) cycles
Procedure: A human clinical study was initiated at a starting dose of 50 mg/m^2. Subjects had recurrent cancer refractory to available systemic therapy. Compound 1 was administered daily by mouth in tablet form for 21 consecutive days in a 28 day cycle to each enrolled subject. For determination of drug levels in humans, plasma was collected prior to drug administration and 0.5, 1, 2, 3, 4, 6, 8, and 24 hours post-dosing on cycle 1 day 1, and cycle 1 day 21. Plasma was collected pre-dose only for cycle 1 day 8. Peripheral blood mononuclear cells (PBMCs) were collected prior to drug administration, and typically 8 and 24 hours post-dose on cycle 1 day 1 and cycle 1 day 21 in order to quantify Hsp70 protein levels as an exploratory biomarker. Patients were men and women with metastatic cancer, ranged in age from 45 to 85 years, and received doses ranging from 50 mg/m^2 to 340 mg/m^2, with a total daily dose of 100-740 mg (Tables 2A and 2B).

[6] = test system: Hsp70 protein levels in PBMCs; assay: Hsp70 protein levels in PBMCs of patients (ELISA); type: in vivo, human; details: 8 hours after the first dose, sustained on day 8 and day 22
Procedure: A human clinical study was initiated at a starting dose of 50 mg/m^2. Subjects had recurrent cancer refractory to available systemic therapy. […] For determination of drug levels in humans, plasma was collected prior to drug administration and 0.5, 1, 2, 3, 4, 6, 8, and 24 hours post-dosing on cycle 1 day 1, and cycle 1 day 21. Plasma was collected pre-dose only for cycle 1 day 8.
Hsp70 protein levels were determined by an ELISA with a Hsp 70 ELISA kit (catalog #EKS-700B, Assay Designs, Stressgen, Ann Arbor, Mich.) as per the manufacturer's protocol.

[7] = test system: OPM-2 multiple myeloma; assay: OPM-2 multiple myeloma xenograft; type: in vivo, mice; details: 200 mg/kg oral, daily for 21 days, p = 0.34
[8] = 25 mg/kg oral, two doses 12 h apart

C[C@H](O)C(=O)N1CCC(CCn2c(Sc3cc4c(cc3Br)OCO4)nc3c(N)ncnc32)CC1 [Compound 1, (2S)-1-[4-(2-{6-amino-8-[(6-bromo-1,3-benzodioxol-5-yl)thio]-9H-purin-9-yl}ethyl)piperidin-1-yl]-1-oxopropan-2-ol]
TGI (tumor growth inhibition) [1]: 68% TGI after 3 cycles
TGI (tumor growth inhibition) ([2]; 150 mg/kg oral, daily for 15 days, Day 15): 67%
TGI (tumor growth inhibition) ([2]; 150 mg/kg oral, daily for 21 days (Table 1)): 67%
TGI (tumor growth inhibition) ([2]; 200 mg/kg oral, daily for 15 days, Day 15): 95%
TGI (tumor growth inhibition) ([2]; 200 mg/kg oral, daily for 21 days (Table 1)): 95%
Cmax [3, 8]: 1110 ng/mL
AUC(0-t) [3, 8]: 5120 ng·h/mL
concentration at 24 h [3, 8]: 46.7 ng/mL
Cmax ([3]; 50 mg/kg oral, single dose): 2120 ng/mL
AUC(0-t) ([3]; 50 mg/kg oral, single dose): 5840 ng·h/mL
concentration at 24 h ([3]; 50 mg/kg oral, single dose): 1.5 ng/mL
plasma concentration at 24 h with BID dosing versus single dose ([3]; oral): significantly higher
tumor regression [4]: 50% regression
dose limiting toxicities [5]: No dose limiting toxicities have been reported to date
Hsp70 levels in protein extracts derived from PBMCs [6]: showed an increase
TGI (tumor growth inhibition) [7]: 71% TGI (p = 0.34)
